Assay [1] has as its target T1, MOR-1 (Mus musculus, UniProt P42866). The assay can be described thus: Screening of MOR-1 binders, single-dose inhibition of 125IBNtxA specific binding. Also noted: expressed in transfected cells; host or cells: CHO cells. The following applies: single dose 10 μM. From the text: Each panel is a representative experiment that has been independently replicated at least three times.

In the next assay the target is T2, DOR-1 (Mus musculus, UniProt P32300).
T2 construct: expressed in transfected cells
Put plainly: Competition binding against 125I-IBNtxA, DOR-1 CHO membranes. The following applies: vs 125I-IBNtxA (0.1 nM). On the procedure: (§1) FIGS. 7A-7C show competition assays at MOR-1, KOR-1 and DOR-1 against FMP4. Competition studies were performed with FMP4 against ^125I-IBNtxA (0.1 nM) in membranes from CHO cells stably expressing the indicated cloned mouse opioid receptors Each figure is a representative experiment that has been independently replicated at least three times. Error bars represent the SEM of triplicate samples. Error bars that cannot be seen are smaller than the size of the symbol.

For the next assay, the target named is T3, KOR-1 (Mus musculus, UniProt P33534).
T3 construct: expressed in transfected cells
The assay can be described thus: Competition binding against 125I-IBNtxA, KOR-1 CHO membranes. The following applies: vs 125I-IBNtxA (0.1 nM), cloned mouse receptor, ± SEM. As for the experimental part:
as §1

The target in assay [2] is T1, MOR-1. The assay can be described thus: Competition binding against 125I-IBNtxA, MOR-1 CHO membranes. More on the design: expressed in transfected cells. The following applies: vs 125I-IBNtxA (0.1 nM).
For assay [3], the target named is T1, MOR-1. Put plainly: [35S]-GTPγS assay in MOR-1 expressing CHO cells. Also noted: expressed in transfected cells; host or cells: CHO cells. The note with it: for Functional character in [35S]GTPγS assay at MOR-1: MOR-1 expressing CHO cells, compared with full agonist DAMGO 100 nM. The class given is biochemical. An excerpt: Results are pooled from 3 independent replications and are expressed as mean±SEM.
A general note: GTPγS resists hydrolysis and so accumulates on activated G proteins.

Where [4] appears, read: cloned mouse receptor, ± SEM, read-out: Binding Data-Ki MOR-1.
Setting [5] is: value in μM, read-out: Binding Data-Ki / affinity MOR-1 (μOR).

Structures are written as SMILES. Entries after “also recorded” stand apart in the source; their conditions may differ. Read-outs that look alike come from different tables or passages of the source.

For orientation: inhibition means the drop in the measured response relative to a control, in per cent. In the case of `Cc1ccccc1OCCCCCN1CCCCC1` [FMP1, 1-piperidino-5-(o-tolyloxy)pentane], the inhibition at 10 µM on MOR-1 [1] is no less than 30%. Besides, the Ki on DOR-1 (cloned mouse receptor, ± SEM) was 17.9 ± 7.61 µM; on KOR-1, 7.39 ± 2.38 µM; on MOR-1 [2] (setting [4]), 0.841 ± 0.242 µM; at MOR-1 [2] (setting [5]), less than 10 µM.
At MOR-1 [1], `Cc1ccccc1OCCCCCCc1c(C)n[nH]c1C` [FMP4, 3,5-dimethyl-4-[6-(o-tolyloxy)hexyl]-1H-pyrazole] registered an inhibition at 10 µM of no less than 30%. For the same compound, on MOR-1 [3] (FMP4 at 30 μM), the “Antagonism of GTPγS stimulation by 100 nM DAMGO” value is given as “antagonized the GTPγS stimulation of 100 nM DAMGO”. Moreover, the “Functional character in [35S]GTPγS assay at MOR-1” value is on record as “weak partial agonism; also recorded: partial agonist” on MOR-1 [3] and “weak MOR-1 partial agonist” at MOR-1 [3] (listed as FMP 4). In addition, the “Stimulation of GTPγS binding” value on MOR-1 [3] (doses 1, 10 and 30 μM, ceiling effect, p<0.0001 vs control) is listed as “stimulates GTPγS binding”. In addition, the Ki was found to be 8.14 ± 1.4 µM at DOR-1 (cloned mouse receptor, ± SEM); 2.5 ± 0.523 µM on KOR-1; 3.22 ± 0.153 µM at MOR-1 [2] (setting [4]); 3.2 µM at MOR-1 [2] (setting [5]).
As for `COc1cccc(OCCCCCN2CCCCC2)c1` [FMP6], the Ki on DOR-1 (value in μM) is greater than 30 µM; on KOR-1, 6.94 ± 1.97 µM; on MOR-1 [2] (setting [5]), greater than 30 µM.
With `Cc1ccc(OCCCCCCc2c(C)n[nH]c2C)cc1` [FMP16, 3,5-dimethyl-4-[6-(p-tolyloxy)hexyl]-1H-pyrazole], the inhibition at 10 µM on MOR-1 [1] is no less than 30%. For the same compound, the Ki was 9.06 ± 0.566 µM on DOR-1 (cloned mouse receptor, ± SEM); 4.92 ± 2.24 µM at KOR-1; 1.75 ± 0.492 µM on MOR-1 [2] (setting [4]); less than 10 µM on MOR-1 [2] (setting [5]).
With `Cc1cccc(C)c1OCCCCCN1CCN(C)CC1` [FMP21], the Ki at DOR-1 (value in μM) is greater than 30 µM; on KOR-1 it was 5.5 ± 4.19 µM; on MOR-1 [2] (setting [5]) it was greater than 30 µM.
Turning to `Cc1ccccc1OCCCCCN1CCOCC1` [FMP30], the Ki on DOR-1 (cloned mouse receptor, ± SEM) is 12.8 ± 0.856 µM; at KOR-1, 6.01 ± 2.16 µM; on MOR-1 [2] (setting [4]) it was 11.3 ± 2.26 µM.
